# Assay results from US11491105B2, “Methods of treating microbial infections, including mastitis” (priority 2013, dated 2022).
# Assays:
# [1] = test system: Staphylococcus isolates (methicillin-sensitive and methicillin-resistant); assay: Minimum inhibitory concentration assay (Example 1); assay type: cell-based; settings: for MIC50 and MIC90 values compared with ampicillin: methicillin-resistant isolates
# Protocol: Forty-two isolates of Staphylococcus of varying species and strain type were collected from isolate collections. Biochemical testing including coagulase, latex agglutination testing for protein A, Vogues-Proskauer tests and resistance to polymyxin B were used to identify the species of Staphylococcus. All isolates were also screened for resistance to various antimicrobials commonly used for the treatment of infections. This was performed using the disk diffusion method and resistance standards as outlined by the CLSI. The following antimicrobials were used: amoxicillin-clavulanic acid (30 μg), cephalothin (30 μg), clindamycin (2 μg), enrofloxacin (5 μg), erythromycin (15 μg), gentamicin (10 μg), imipenem (10 μg), oxacillin (1 μg), penicillin G (10 units), tetracycline (30 μg), 1:19 trimethoprim-sulfamethoxazole (25 μg) and vancomycin (30 μg).
# Minimum inhibitory concentration tests were performed according to CLSI Standards (CLSI 2012). 90 μL of one of the test compound solutions, or ampicillin, was added to the end column of a 96 well plate that contained 90 μL of CAMHB in each well. The solutions were then serially diluted across the row, leaving 2 columns for positive and negative controls (FIG. 2). A bacterial suspension was prepared by adding fresh colonies obtained from an overnight culture on Sheep Blood Agar (SBA) to a 9.1 g/L saline solution. This suspension was adjusted to a concentration of between 4×10^8 and 5×10^8 CFU/mL. Concentration of the suspension was determined by measuring optical density (OD) using a spectrophotometer at a wavelength of 600 nm where the correct concentration was determined to have an optical density of between 1.00 and 1.20. 1 mL of this suspension was added to 9 mL of saline before being added to all wells, excluding the negative control wells, in 10 μL volumes giving a final concentration of between 4×10^5 and 5×10^5 CFU/mL in each well. The tests were then incubated for 24 hours at 37° C. and then assessed both visually and using OD readings from a microplate reader at a wavelength of 600 nm. These tests were performed in duplicate but repeated if discrepancies were observed.
# The minimum inhibitory concentration (MIC) was determined to be the lowest concentration of antibiotic that prevented growth of bacteria both visually and using OD readings. Direct statistical comparisons between the test compounds and ampicillin could not be performed in light of confidential information restrictions, such as restrictions on disclosure of information relating to the compound structure, such as molecular weight. Instead, MIC values were collated and used to determine the lowest concentration of each compound that was effective against 50% and 90% of isolates, referred to as the MIC50 and MIC90 respectively. These values as well as the range of MIC values were then used for direct comparisons between test compounds and for general comparisons with ampicillin.
# [2] = test system: bovine mastitis isolates; assay: Minimum inhibitory concentration assay (Example 3); assay type: cell-based
# Text: Fifty-one dairy bovine mastitis isolates, encompassing a variety of bacterial species, were isolated from milk samples collected from dairy farms in rural South Australia by the University of Adelaide Ambulatory Clinic. Cellular morphology observed from Gram stains and catalase testing was used to differentiate Staphylococcus, Streptococcus and Corynebacterium species from Gram-negative species. Further biochemical testing including coagulase, Lancefield grouping, esculin hydrolysis and CAMP tests were used to identify the isolates to species level. Where biochemical test results were not definitive in identifying species, amplification and sequencing of the 16S ribosomal RNA gene was used to confirm the identity of the isolates.
# Minimum inhibitory concentration tests were performed in the manner outlined by the CLSI (CLSI 2012). Test compounds were dispensed into a 96-well microtitre tray containing 90 μl of CAMHB in 90 μl volumes and serial diluted to obtain a concentration gradient ranging from 128 μg/ml to 0.25 μg/ml (see FIG. 24). For Streptococcus species, CAMHB was replaced with a CAMHB supplement with 4% lysed-sheep blood (4% LSB:CAMHB). 4% LSB:CAMHB was prepared by mixing 5 ml sheep blood to 5 ml milliQ water, and repeated freezing at −20° C. and thawing, followed by centrifuged for 20 min at 7000 rpm. 7 ml of the supernatant was removed and added to 93 mL of CAMB.
# Bacterial suspensions were prepared by emulsifying fresh colonies obtained from an overnight culture on Sheep Blood Agar (SBA) in 4 mls of 9.1 g/l physiological saline to an optical density read at 600 nm (OD600nm) between 1.00 and 1.20. Standardised bacterial suspensions were diluted 1:10 in physiological saline and dispensed into all wells, excluding the negative control wells, in 10 μL volumes giving a final concentration of between 4×10^5 and 5×10^5 CFU/mL in each well. 96-well microtitre trays were incubated for 24 hours at 37° C. in 5% CO2 and then assessed both visually and using OD readings from a microplate reader at a wavelength of 600 nm. These tests were performed in duplicate and repeated if discrepancies in MIC values were observed between replicates.
# The minimum inhibitory concentration (MIC) was determined to be the lowest concentration of antibiotic that prevented growth of bacteria both visually and using OD readings. MIC values were collated and used to determine the lowest concentration of each compound effective against 50% and 90% of isolates, known as the MIC50 and MIC90 respectively. These values as well as the range of MIC values were then used for direct comparisons between test compounds and for general comparisons with ampicillin.
# [3] = Dilution in Cation Adjusted Mueller Hinton Broth; assay type: physicochemical
# Protocol: For each of the five test compounds, a […] stock solution was created by dissolving 2.56 grams of compound in 10 ml of dimethyl sulfoxide (DMSO). The resulting solution was then aliquoted into 500 μL volumes and stored at −80° C. A […] stock solution of ampicillin was also created by dissolving 0.303 grams of ampicillin (Sigma A-0166) in 10 ml of DMSO. This solution was aliquoted and stored in the same manner as the five test compounds. When these compounds were required, a 256 μg/ml working solution was created by diluting 100 μl of stock solution (25.6 mg/ml) in 9.9 ml of Cation-Adjusted Mueller Hinton Broth (CAMHB)
# LP4525 had the most consistent MIC values for all isolates, and this is evidenced by the small MIC range. LP4525 also has a lower MIC90 value compared to all compounds.
# [4] = test system: MRSA 9; assay: Microdilution time-kill assay; assay type: cell-based, Staphylococcus aureus; settings: 48 hours
# Protocol: Following assessment of MIC and MBC results, two compounds were chosen for analysis using microdilution time-kill assays, LP 1369 and LP 6315 and these were compared to ampicillin. Time-kill assays were performed according to the M26-A guidelines of the CLSI, with modifications. The test compounds and ampicillin were serial diluted in CAMHB across the rows of a 96 well plate and a bacterial suspension was prepared and added in the same manner as the MIC testing. […] The time points assessed were 0, 1, 2, 4, 8, 12, 24 and 48 hours after the addition of the bacterial suspension to the wells. Each test compound was tested in triplicate while ampicillin was tested in duplicate and this test was independently repeated. The bacterial strains used for the microdilution assays were chosen based on bactericidal activity evident during MBC testing. One strain from each of the categories of Staphylococcus in the isolate collection (methicillin-sensitive, methicillin resistant and coagulase negative) were selected as well as the ATCC reference strain for comparison. These strains were strains MSS 1, MSS 11, MRSA 9 and the ATCC 49775 reference strain.
# [5] = test system: MRSA 9; assay: Macrodilution time-kill assay; assay type: cell-based, Staphylococcus aureus; settings: 24 hours
# Protocol: (§1) Due to the detection limit of the OD measurements, the time-kill assays were also performed in macrodilution. In 15 mL tubes, 9 mL volumes of the test compounds in CAMHB were prepared at one, four and eight times the MIC concentration and 9 mL volumes of ampicillin were prepared in CAMHB at one and four times the MIC. 1 mL of a 4 to 5×10^6 bacterial suspension (as prepared for MIC testing) was added to each of the tubes as well as a growth control tube containing only 9 mL of CAMHB. These tubes were incubated at 37° C. in an orbital shaker rotating at 100 rpm for 24 hours. At 0, 1, 4, 8, 12 and 24 hours after addition of the bacteria, 100 μL samples were removed from each tube and serial diluted in 9.1 g/L saline solution. The dilutions were then plated in duplicate onto plate count agar and incubated for 24 hours at 37° C. After incubation, viable counts were obtained from the number of colonies visible on the agar and these were used to calculate the number of CFU/mL at each time point. For the macrodilution time-kill analysis, only the ATCC 49775 reference strain and MRSA 9 were assessed in order to further investigate the antibacterial activity against methicillin-resistant strains. These macrodilution time-kill assays were independently repeated and bactericidal activity was defined as a ≥3 log decrease in the number of CFU/mL.
# [6] = test system: ATCC 49775 reference strain; assay: Macrodilution time-kill assay; assay type: cell-based, Staphylococcus; settings: 24 hours
# Protocol: as §1
# [7] = dogs; cited from earlier work
# [8] = humans; cited from earlier work
# [9] = accidental inhalation and swallowing of about 1 mg/kg, human; cited from earlier work
# [10] = test system: Staphylococcus isolates (methicillin-sensitive and methicillin-resistant); assay: Minimum bactericidal concentration determination (Example 1); assay type: cell-based; settings: for bactericidal activity (MBC testing): methicillin-sensitive and methicillin-resistant strains
# Protocol: Following determination of the MIC using the 96 well MIC plate, a variation of the drop plate method was used to determine minimum bactericidal concentration (MBC) for each of the test compounds. These were analysed using samples taken from the MIC plate following incubation. For each compound, a 10 μL drop of each concentration equal to or higher than the MIC was pipetted onto Sheep Blood Agar in a clockwise manner (FIG. 3). Each concentration was pipetted in duplicate with duplicates being pipetted on an inner ring of drops. The plates were incubated at 37° C. overnight and assessed the following day for growth. The MBC was defined as the concentration at which 99.9% of colonies were eradicated, which was visually assessed by a lack of growth on the agar where the drop was placed. […] The MBC values for 50% and 90% of the isolates (MBC50 and MBC90) were calculated and assessed along with the MBC range in order to select compounds for further study.
# [11] = 51 Australian bovine mastitis isolates
compound,measurement,setting,value
"CC[C@@]1([C@@H]2O[C@@H]([C@H]3O[C@@](O)(CO)[C@H](C)C[C@@H]3C)C[C@@H]2C)CC[C@H]([C@]2(C)CC[C@]3(C[C@H](O)[C@@H](C)[C@@H]([C@@H](C)[C@@H](OC)[C@H](C)C(=O)O)O3)O2)O1 [LP 9666, Monensin]",MIC90 value and MIC range (in words),[1]; all strains,high MIC90 value and broad MIC range
same,MIC50 and MIC90 values compared with ampicillin,[1],considerably lower than ampicillin
same,antibacterial activity against the bovine mastitis isolates,[2],observed
same,MIC90,[2]; [11],128 µg/mL
same,MIC90 values for each of the groups of mastitis pathogens (in words),[2]; compared with the other compounds,significantly higher
same,turbidity or precipitate upon dilution,[3],large amount of precipitate
CC1(C)S[C@@H]2[C@H](NC(=O)[C@H](N)c3ccccc3)C(=O)N2[C@H]1C(=O)O [ampicillin],resulting growth after 48 hours,[4],comparable to the growth control
same,bactericidal or bacteriostatic (>=3 log decrease in CFU/mL = bactericidal),[5]; LP 6315: most concentrations,bactericidal
same,decrease in the number of viable bacteria,[5]; all concentrations tested,> 3 log10
same,bactericidal or bacteriostatic (>=3 log decrease in CFU/mL = bactericidal),[6]; LP 6315: most concentrations,bactericidal
same,decrease in the number of viable bacteria,[6]; all concentrations tested,> 3 log10
"CC[C@@H](C(=O)[C@@H](C)[C@@H](O)[C@H](C)[C@@H]1O[C@@H]([C@@H](CC)C(=O)O)CC[C@@H]1C)[C@H]1O[C@]2(C=C[C@@H](O)[C@]3(CC[C@@](C)([C@H]4CC[C@](O)(CC)[C@H](C)O4)O3)O2)[C@H](C)C[C@@H]1C [LP 1088, Salinomycin]",MIC50 and MIC90 values compared with ampicillin,[1],considerably lower than ampicillin
same,"daily intake that leads to neurotoxic effects (myelin loss, axonal degeneration)",[7],more than 500 μg/kg
same,acceptable daily intake (ADI),[8],5 µg/kg
same,MIC values (in words),[2],low MIC values
same,antibacterial activity against the bovine mastitis isolates,[2],observed
same,MIC90,[2]; [11],2 µg/mL
same,toxicity after accidental exposure,[9],severe acute and chronic salinomycin toxicity
same,strains against which bactericidal activity was exhibited more consistently,[10],methicillin-sensitive strains
same,bactericidal activity (MBC testing),[10],some bactericidal activity in lower concentrations
Narasin [LP 4525],MIC50 and MIC90 values compared with ampicillin,[1],considerably lower than ampicillin
same,MIC values (in words),[2],low MIC values
same,antibacterial activity against the bovine mastitis isolates,[2],observed
same,MIC50,[2]; [11],0.25 µg/mL
same,MIC90,[2]; [11],1 µg/mL
same,strains against which bactericidal activity was exhibited more consistently,[10],methicillin-sensitive strains
same,bactericidal activity (MBC testing),[10],some bactericidal activity in lower concentrations
